Results published in PubChem BioAssay (NCI).
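96-well plates; 48 h exposure; 5 concentrations. Endpoints by linear interpolation between flanking doses. Not reached: highest tested concentration assigned. Abbreviation: GI50, concentration required for 50% inhibition of growth. Definition used: TGI = concentration required for complete inhibition of growth.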 Where a SMILES comes first, the peptide text is derived from it. Bridges are numbered along the chain shown (N, C = ends). Roman numbers before positions name the chains, in order. [ ]: non-standard residue; d: D form. The star is where a group is joined. Quinoxaline2carbonyl = O=C(c1cnc2ccccc2n1)*; NMeV = CN[CH](C(=O)O)C(C)C; NMeC = CN[CH](CS)C(=O)O

What was measured:
Test in all cases: DTP human tumour cell line panel, 48 h
786-0 renal = tested on: 786-0 renal
HCT-116 colon = tested on: HCT-116 colon
HT29 colon = tested on: HT29 colon
IGROV1 ovarian = tested on: IGROV1 ovarian
NCI-H460 lung = tested on: NCI-H460 lung
SNB-19 CNS = tested on: SNB-19 CNS
U251 CNS = tested on: U251 CNS
BT-549 breast = tested on: BT-549 breast
T-47D breast = tested on: T-47D breast
MCF7 breast = tested on: MCF7 breast

| Structure (SMILES) | TGI (786-0 renal) [µM] | TGI (HCT-116 colon) [µM] | TGI (HT29 colon) [µM] | TGI (IGROV1 ovarian) [µM] | TGI (NCI-H460 lung) [µM] | TGI (SNB-19 CNS) [µM] | TGI (U251 CNS) [µM] | GI50 (786-0 renal) [µM] | GI50 (BT-549 breast) [µM] | TGI (BT-549 breast) [µM] | GI50 (HCT-116 colon) [µM] | GI50 (IGROV1 ovarian) [µM] | GI50 (NCI-H460 lung) [µM] | GI50 (SNB-19 CNS) [µM] | GI50 (T-47D breast) [µM] | TGI (T-47D breast) [µM] | GI50 (U251 CNS) [µM] | TGI (MCF7 breast) [µM] | GI50 (HT29 colon) [µM] | GI50 (MCF7 breast) [µM] |
| --- | --- | --- | --- | --- | --- | --- | --- | --- | --- | --- | --- | --- | --- | --- | --- | --- | --- | --- | --- | --- |
| CNS(=O)(=O)NNS(=O)(=O)c1ccc(Cl)cc1 | > 100 | > 100 | > 100 | > 100 | > 100 | > 100 | – | – | – | – | – | – | – | – | – | – | – | – | – | – |
| c1ccc(P(=Nc2ccccc2N=P(c2ccccc2)(c2ccccc2)c2ccccc2)(c2ccccc2)c2ccccc2)cc1 | 11.3 | 9.64 | 11.6 | 22.8 | 11 | 16.9 | 11.6 | – | – | – | – | – | – | – | – | – | – | – | – | – |
| COC(CN1C=C(Sc2ccccc2)CC1)OC | > 100 | > 100 | 54.2 | > 100 | > 100 | > 100 | – | – | – | – | – | – | – | – | – | – | – | – | – | – |
| COC(=O)CC1NC(=O)C1C1(C)OCCO1 (configuration not stated) | > 100 | > 100 | > 100 | > 100 | > 100 | > 100 | > 100 | – | – | – | – | – | – | – | – | – | – | – | – | – |
| C[C@@H]1O[C@@H](OC[C@H]2O[C@@H](OCCc3ccc(O)c(O)c3)[C@H](O)[C@@H](O)[C@@H]2OC(=O)/C=C/c2ccc(O)c(O)c2)[C@H](O)[C@H](O)[C@H]1O | > 100 | > 100 | – | > 100 | > 100 | > 100 | > 100 | > 100 | 24.5 | 54.3 | 50.5 | > 100 | > 100 | > 100 | > 100 | > 100 | > 100 | – | – | – |
| CCCCCCN(N)C(=O)CC#N | > 100 | > 100 | > 100 | > 100 | > 100 | – | > 100 | – | – | – | – | – | – | – | – | – | – | – | – | – |
| C=C1CCC2[C@@H](CCC3[C@]2(C)CCC[C@]3(C)C(=O)OC)[C@@H]1CC=O (some centres not stated) | > 100 | 30.7 | 81 | > 100 | 41.3 | > 100 | > 100 | – | – | – | – | – | – | 47.5 | – | – | 46 | – | – | – |
| Cn1c2ccccc2n2c(=O)c3c(c(C#N)c12)CCCC3 | > 100 | > 100 | > 100 | > 100 | > 100 | > 100 | > 100 | – | – | – | – | – | – | – | – | – | – | – | – | – |
| COc1ccc(C=O)c(NC(=O)C(C)C)c1 | > 100 | 31.2 | > 100 | > 100 | > 100 | > 100 | > 100 | – | – | – | – | – | – | – | – | – | – | – | – | – |
| O=C(NC1CCCC1=O)c1ccccc1 (configuration not stated) | > 100 | > 100 | > 100 | > 100 | > 100 | > 100 | > 100 | – | – | – | – | – | – | – | – | – | – | – | – | – |
| CC1(C)OCC(C(O)C2OC(C)(C)OC2/C=N\O)O1 (configuration not stated) | > 100 | > 100 | > 100 | > 100 | > 100 | > 100 | > 100 | – | – | – | – | – | – | – | – | – | – | – | – | – |
| CC(C)c1c2[nH]c3ccccc3c2c(C(C)C)c2[nH]c3ccccc3c12 | > 100 | > 100 | > 100 | > 100 | > 100 | > 100 | > 100 | – | – | – | – | – | – | – | – | – | – | – | – | – |
| CCCCCCCCCCCCCP(=O)(O)NCC(N)=O | > 100 | > 100 | > 100 | > 100 | > 100 | > 100 | > 100 | – | – | – | – | – | – | – | – | – | – | – | – | – |
| CC1NC(=O)C(NC(=O)c2cnc3ccccc3n2)COC(=O)C(C(C)C)N(C)C(=O)C2CSSCC(C(=O)N(C)C(C(C)C)C(=O)OCC(NC(=O)c3cnc4ccccc4n3)C(=O)NC(C)C(=O)N2C)N(C)C1=O (configuration not stated) (I: Quinoxaline2carbonyl-SA[NMeC][NMeV] / II: Quinoxaline2carbonyl-SA[NMeC][NMeV]; ester I:1-II:C, I:C-II:1; disulfide I:3-II:3; configuration not given here) | 2.27 | 14 | – | – | 2.23 | > 100 | > 31.8 | – | – | < 0.01 | – | – | – | – | – | – | – | < 0.01 | – | – |
| CC1CN1c1c(C(=O)/C=C/c2ccccc2)c(-c2ccccc2)nn(C)c1=O (configuration not stated) | 30.6 | 33.2 | 29.4 | 59.8 | 41.2 | 50.2 | 31.6 | – | – | – | – | – | – | – | – | – | – | – | – | – |
| COc1ccc2c(c1)OC1=C(C(=O)OC1)C2c1cc(OC)c2c(c1)OCO2 (configuration not stated) | > 100 | 7.16 | > 100 | > 100 | > 100 | > 100 | > 100 | 0.0506 | – | > 100 | 0.0366 | 0.0716 | 0.0374 | 0.0531 | – | – | 0.0429 | > 100 | 0.0328 | 0.0342 |
| Fc1cccc(C2SCc3nc4ccccc4n32)c1F (configuration not stated) | > 100 | > 100 | > 100 | > 100 | > 100 | > 100 | > 100 | – | – | – | – | – | – | – | – | – | – | – | – | – |
